Measured values from patent US8946273B2, “S-Triazolyl alpha-mercapto acetanilides as inhibitors of HIV reverse transcriptase” (priority 2011, dated 2015).
Where two headings read alike, the source gives them in different places.

Key:
[1] = biological target: mutant HIV reverse transcriptases (Human immunodeficiency virus type 1, UniProt P12497, Y768C, cells depend on it); type: cell-based
[2] = biological target: mutant HIV reverse transcriptases (Human immunodeficiency virus type 1, UniProt P12497, Y775L, cells depend on it); type: cell-based
[3] = biological target: T1, wild-type HIV reverse transcriptase (Human immunodeficiency virus type 1 group M subtype B, UniProt P04585); test: Activity on wild type reverse transcriptase (Table 1 IC50 WT); type: biochemical
T1 construct: wild-type and four mutant HIV reverse transcriptases
Description: Using similar methods as described above, 2-[5-bromo-4-(4-cyclopropylnaphthalen-1-yl)-4H-[1,2,4]triazol-3-ylsulfanyl]-N-(2-methyl-4-sulfamoylphenyeacetamide and 2-[5-bromo-4-(4-ethylnaphthalen-1-yl)-4H-[1,2,4]triazol-3-ylsulfanyl]-N-(2-chloro-4-sulfamoylphenyl)-acetamide were synthesized, as were the N-4-carbamyl analog, 2-[5-bromo-4-(4-ethyl-naphthalen-1-yl)-4H-[1,2,4]triazol-3-ylsulfanyl]-N-(2-chloro-4-carbamoylphenyl)-acetamide and the N-4-carboxyl analog. Each of the compounds was tested against a panel of mutant HIV reverse transcriptases, including 20 of the 22 of the mutants that are found in about 2% or more of the patient samples that are resistant to the most widely used non-nucleoside HIV-RT inhibitor efavirenz ((4S)-6-chloro-4-(cyclopropylethynyl)-1,4-dihydro-4-(trifluoromethyl)-2H-3,1-benzoxazin-2-one). […] In most cases both criteria were met. […] […].
Compounds of the invention were tested against the wild-type and four mutant HIV reverse transcriptases. The results are listed in Table 1 as EC50 (nM) and IC50 (nM). In the Table, A represents <50 nM, B is between 50 and 100 nM, and C is >100 nM. ND is not determined.

wild type HIV-1 = test: microbe, parasite or virus in culture; type: cell-based, human immunodeficiency virus type 1 (HIV-1)
[4] = Human immunodeficiency virus 1, Hela-JC53, read-out: EC50 WT
[5] = read-out: EC50 WT, wild-type (WT) HIV-1

SMILES | EC50 [1] [nM] | EC50 [2] [nM] | IC50 [3] [nM] | EC50 (wild type HIV-1; [4]) [nM] | EC50 (wild type HIV-1; [5]) [nM]
CCc1ccc(-n2c(C)nnc2SCC(=O)Nc2ccc(S(N)(=O)=O)cc2Cl)c2c1CCCC2 [compound 43] | < 50 | < 50 | < 50 | < 50 | –
CC[C@H](C)[C@H](NC(=O)c1ccc(NC(=O)CSc2nnc(Br)n2-c2ccc(C3CC3)c3ccccc23)c(Cl)c1)C(=O)O [compound 135] | < 50 | > 100 | < 50 | < 50 | –
CCc1ccc(-n2c(Br)nnc2SCC(=O)Nc2ccc(C(=O)NCC3CCCO3)cc2Cl)c2ccccc12 (centres unmarked) [compound 125] | < 50 | < 50 | < 50 | < 50 | –
Cc1cc(C2CC2)cc(Cl)c1-n1c(Br)nnc1SCC(=O)Nc1ccc(C(=O)O)cc1Cl [compound 28] | < 50 | < 50 | – | – | –
Cc1ccc(-n2c(C)nnc2SCC(=O)Nc2ccc(S(N)(=O)=O)cc2Cl)c2c1CCCC2 [compound 46] | < 50 | < 50 | < 50 | < 50 | –
CC(C)[C@H](NC(=O)c1ccc(NC(=O)CSc2nnc(Br)n2-c2ccc(C3CC3)c3ccccc23)c(Cl)c1)C(=O)O [compound 106] | > 100 | 50 to 100 | 50 to 100 | < 50 | –
CCOC(=O)CCNC(=O)c1ccc(NC(=O)CSc2nnc(Br)n2-c2ccc(CC)c3ccccc23)c(Cl)c1 [compound 107] | < 50 | > 100 | < 50 | < 50 | –
COC(=O)[C@@H](NC(=O)c1ccc(NC(=O)CSc2nnc(Br)n2-c2ccc(C3CC3)c3ccccc23)c(Cl)c1)C(C)C [compound 103] | < 50 | 50 to 100 | < 50 | < 50 | –
CCc1ccc(-n2c(Br)nnc2SCC(=O)Nc2ccc(C(=O)NCC3CCCCC3)cc2Cl)c2ccccc12 [compound 124] | < 50 | < 50 | < 50 | < 50 | –
Cc1ccc2c(C)ccc(-n3c(Br)nnc3SCC(=O)Nc3ccc(S(N)(=O)=O)cc3Br)c2c1 [compound 81] | < 50 | < 50 | – | < 50 | –
NS(=O)(=O)c1ccc(NC(=O)CSc2nnc(Br)n2-c2ccc(F)c3ccccc23)c(Cl)c1 [compound 61] | < 50 | < 50 | < 50 | < 50 | –
Cc1ccc2c(C)cc(C)c(-n3c(SCC(=O)Nc4ccc(S(N)(=O)=O)cc4C)nnc3C(F)F)c2n1 [compound 64] | < 50 | < 50 | < 50 | < 50 | –
NS(=O)(=O)c1ccc(NC(=O)CSc2nncn2-c2ccc(C3CC3)c3ccccc23)c(Cl)c1 [compound 66] | < 50 | > 100 | < 50 | < 50 | –
NS(=O)(=O)c1ccc(NC(=O)CSc2nnc(Br)n2-c2ccc(C3CCC3)c3ccccc23)c(Cl)c1 [compound 95] | < 50 | < 50 | – | < 50 | –
NS(=O)(=O)c1ccc(NC(=O)CSc2nnc(Br)n2-c2ccc(C3CC3)c3ccccc23)c(Cl)c1 [compound 77] | 50 to 100 | > 100 | – | < 50 | –
NS(=O)(=O)c1ccc(NC(=O)CSc2nnc(Cl)n2-c2ccc(C3CC3)c3ccccc23)c(Cl)c1 [compound 89] | < 50 | < 50 | – | < 50 | –
COc1ccc2c(C3CC3)ccc(-n3c(Br)nnc3SCC(=O)Nc3ccc(C(=O)O)cc3Cl)c2c1 [compound 34] | < 50 | < 50 | – | < 50 | –
Cc1cc(C(=O)O)ccc1NC(=O)CSc1nnc(Br)n1-c1ccc(C2CC2)c2ccccc12 [compound 35] | – | – | < 50 | < 50 | –
Cc1ccc2ccccc2c1-n1c(Br)nnc1SC(C)C(=O)Nc1ccc(S(N)(=O)=O)cc1Cl (centres unmarked) [compound 141] | – | – | < 50 | < 50 | –

SMILES | EC50 [1] [nM] | EC50 [2] [nM] | IC50 [3] [nM] | EC50 (wild type HIV-1; [4]) [nM] | EC50 (wild type HIV-1; [5]) [nM]
Cc1cc(C)c2ccccc2c1-n1c(CF)nnc1SCC(=O)Nc1ccc(S(N)(=O)=O)cc1Cl [compound 53] | < 50 | < 50 | – | < 50 | –
N#Cc1cccc2c(-n3c(SCC(=O)Nc4ccc(S(N)(=O)=O)cc4Cl)nnc3C(F)F)cccc12 [compound 96] | < 50 | > 100 | – | – | –
Cc1cc(C)c2ccccc2c1-n1c(CF)nnc1SCC(=O)Nc1ccc(S(N)(=O)=O)cc1Cl [compound 82] | < 50 | – | – | – | < 50
NS(=O)(=O)c1ccc(NC(=O)CSc2nnc(Br)n2-c2c(Cl)cc(C3CCC3)c3ccccc23)c(Cl)c1 [compound 91] | < 50 | < 50 | – | < 50 | –
Cc1cc(S(N)(=O)=O)ccc1NC(=O)CSc1nnc(Br)n1-c1ccc(C)c2c1CCCC2 [compound 80] | < 50 | < 50 | – | < 50 | –
NS(=O)(=O)c1ccc(NC(=O)CSc2nnc(Br)n2-c2ccc(C3CC3)c3ccccc23)c(Cl)c1 [compound 39] | < 50 | < 50 | – | – | < 50
CCCc1ccc(-n2c(Br)nnc2SCC(=O)Nc2ccc(S(N)(=O)=O)cc2Cl)c2ccccc12 [compound 85] | < 50 | < 50 | – | < 50 | –
CCc1ccc(-n2c(Br)nnc2SCC(=O)Nc2ccc(S(N)(=O)=O)cc2Cl)c2c1CCCC2 [compound 79] | < 50 | < 50 | – | < 50 | –
COc1ccc2c(C)ccc(-n3c(Br)nnc3SCC(=O)Nc3ccc(C(=O)O)cc3Cl)c2c1 [compound 18] | < 50 | < 50 | – | – | –
NS(=O)(=O)c1ccc(NC(=O)CSc2nnc(Br)n2-c2ccc(C3CC3)c3ccccc23)c(Cl)c1 [compound 42] | < 50 | < 50 | – | – | < 50
CC(Sc1nnc(Br)n1-c1ccc(C2CC2)c2ccccc12)C(=O)Nc1ccc(S(N)(=O)=O)cc1Cl (centres unmarked) [compound 76] | 50 to 100 | > 100 | – | – | –
NS(=O)(=O)c1ccc(NC(=O)CSc2nnc(Br)n2-c2ccc(C3CC3)cc2OC(F)(F)F)c(Cl)c1 [compound 90] | < 50 | 50 to 100 | – | – | –
Cc1cc(C2CC2)cc(Cl)c1-n1c(Br)nnc1SCC(=O)Nc1ccc(S(N)(=O)=O)cc1Cl [compound 93] | < 50 | < 50 | – | – | –
Cc1cc(C2CC2)ccc1-n1c(Br)nnc1SCC(=O)Nc1ccc(S(N)(=O)=O)cc1Cl [compound 88] | < 50 | < 50 | – | < 50 | –
NS(=O)(=O)c1ccc(NC(=O)CSc2nnc(Br)n2-c2ccc(C3CC3)cc2)c(Cl)c1 [compound 78] | < 50 | > 100 | – | – | –
CCc1ccc(-n2c(Br)nnc2SCC(=O)Nc2ccc(S(N)(=O)=O)cc2Cl)c2ccccc12 [compound 87] | < 50 | < 50 | – | < 50 | –
Cc1cc(S(N)(=O)=O)ccc1NC(=O)CSc1nnc(Br)n1-c1ccc(C2CCC2)c2ccccc12 [compound 94] | < 50 | < 50 | – | – | –
CCCc1ccc(-n2c(Br)nnc2SCC(=O)Nc2ccc(S(N)(=O)=O)cc2C)c2ccccc12 [compound 86] | < 50 | < 50 | – | < 50 | –
CCc1ccc(-n2c(Br)nnc2SCC(=O)Nc2ccc(C(=O)O)cc2Cl)c2ccccc12 [compound 9] | < 50 | – | – | – | < 50
